Earlier results in PubChem BioAssay AID1259409 (Chemical Carcinogenesis Research Information System (CCRIS), 2018).
Where “and” joins values, the source holds several entries; their conditions need not be identical. Identical values can stand only once.

System: rodent chemically induced tumor inhibition, incidence and multiplicity
Assay: CCRIS tumor inhibitor studies
Conditions: 3817-11-6, Dose [Inhibitor]: 0, Promoter: NONE USED

With `CC[C@H](C)[C@@H](NC(=O)[C@@H](CCC(=O)O)NC(=O)[C@@H](CO)NC(=O)[C@@H](CO)NC(=O)[C@H](NC(=O)[C@@H](CC(=O)O)NC(=O)[C@H](NC(=O)[C@H](C)NC(=O)[C@H](C)NC(=O)[C@@H](CC(=O)O)NC(=O)[C@@H](CO)NC(=O)[C@H](N)CS)C(C)C)C(C)C)C(=O)N[C@@H](C(=O)N[C@@H](C(=O)N[C@H](CCCCN)C(=O)N[C@H](CC(=O)O)C(=O)N[C@H](CC(C)C)C(=O)N[C@H](CCCCN)C(=O)N[C@H](CCC(=O)O)C(=O)N[C@H](CCCCN)C(=O)N[C@H](CCCCN)C(=O)N[C@H](CCC(=O)O)C(=O)N[C@@H](C(=O)N[C@@H](C(=O)N[C@H](CCC(=O)O)C(=O)N[C@H](CCC(=O)O)C(=O)N[C@@H](C)C(=O)N[C@H](CCC(=O)O)C(=O)O)C(C)C)C(C)C)C(C)C)[C@H](C)O` as the compound, how does the “tumour outcome (control, treated, inhibition, significance)” value (Carcinogen: N-BUTYL-N-(4-HYDROXYBUTYL)NITROSAMINE, 30 UG THYMOSIN FRACTION 5 IN 100 µL SALINE INJECTED INTO RIGHT THIGH 2/WK FOR 20 WK (STUDY DURATION: 20 WK), Route [Inhibitor]: INTRAMUSCULAR, Species: MOUSE, Strain/Sex: C3H/HEJ/FEMALE, Target Tissue: Type of Lesion: BLADDER: CARCINOMA, Dose [Carcinogen]: 0.05% (W/V) SOLUTION IN DRINKING WATER WITH 0.001% (W/V) TWEEN 80 FOR 20 WK) read?
Its value is 6/11 (55%), 2/11 (18%), 67%, not significant.

What about the “tumour outcome (control, treated, inhibition, significance)” value (Carcinogen: N-BUTYL-N-(4-HYDROXYBUTYL)NITROSAMINE, 30 UG THYMOSIN FRACTION 5 IN 100 µL SALINE INJECTED INTO RIGHT THIGH 2/WK FOR 25 WK (STUDY DURATION: 25 WK), Route [Inhibitor]: INTRAMUSCULAR, Species: MOUSE, Strain/Sex: C3H/HEJ/FEMALE, Target Tissue: Type of Lesion: BLADDER: CARCINOMA, Dose [Carcinogen]: 0.05% (W/V) SOLUTION IN DRINKING WATER WITH 0.001% (W/V) TWEEN 80 FOR 25 WK) of the same compound?
The value was 9/16 (56%), 8/13 (62%), -11%, not significant.

And the “tumour outcome (control, treated, inhibition, significance)” value (Carcinogen: N-BUTYL-N-(4-HYDROXYBUTYL)NITROSAMINE, 600 UG THYMOSIN FRACTION 5 2/WK FOR 12 WK BEGINNING POST CARCINOGEN TREATMENT (STUDY DURATION: 20 WK), Route [Inhibitor]: SUBCUTANEOUS, Species: MOUSE, Strain/Sex: NON/SHI/MALE, Target Tissue: Type of Lesion: RENAL PELVIS: CARCINOMA, Dose [Carcinogen]: 0.05% IN DRINKING WATER FOR 8 WK)?
Its value is 3/31 (10%), 5/32 (16%), -60%, not significant and 7/29 (24%), 7/29 (24%), 0%, not significant.

What about the “tumour outcome (control, treated, inhibition, significance)” value (Carcinogen: N-BUTYL-N-(4-HYDROXYBUTYL)NITROSAMINE, 600 UG THYMOSIN FRACTION 5 2/WK FOR 12 WK BEGINNING POST CARCINOGEN TREATMENT (STUDY DURATION: 20 WK), Route [Inhibitor]: SUBCUTANEOUS, Species: MOUSE, Strain/Sex: NON/SHI/MALE, Target Tissue: Type of Lesion: URINARY BLADDER: CARCINOMA, Dose [Carcinogen]: 0.05% IN DRINKING WATER FOR 8 WK) of the same compound?
The value was 25/31 (81%), 15/32 (47%), 42%, p<0.01 and 19/29 (66%), 23/29 (79%), -20%, not significant.

What about the “tumour outcome (control, treated, inhibition, significance)” value (Carcinogen: N-BUTYL-N-(4-HYDROXYBUTYL)NITROSAMINE, 600 UG THYMOSIN FRACTION 5 IN 100 µL SALINE INJECTED INTO RIGHT THIGH 2/WK FOR 30 WK (STUDY DURATION: 30 WK), Route [Inhibitor]: INTRAMUSCULAR, Species: RAT, Strain/Sex: WISTAR/FEMALE, Target Tissue: Type of Lesion: BLADDER: CARCINOMA, Dose [Carcinogen]: 0.025% (W/V) SOLUTION IN DRINKING WATER WITH 0.0005% (W/V) TWEEN 80 FOR 30 WK) of the same compound?
The value was 9/11 (82%), 2/11 (18%), 78%, p<0.05.

And the “tumour outcome (control, treated, inhibition, significance)” value (Carcinogen: PHENACETIN, 62-44-2, N-BUTYL-N-(4-HYDROXYBUTYL)NITROSAMINE, Carcinogen: PHENACETIN, 62-44-2, N-BUTYL-N-(4-HYDROXYBUTYL)NITROSAMINE, 60 UG IN 0.1 ML SALINE 2/WK FOR 6 WK CONCURRENTLY WITH BBN TREATMENT (STUDY DURATION: 30 WK), Route [Inhibitor]: SUBCUTANEOUS, Species: MOUSE, Strain/Sex: NON/SHI/MALE, Target Tissue: Type of Lesion: RENAL PELVIS: CARCINOMA, Dose [Carcinogen]: 2% PHENACETIN IN DIET FOR 8 WK FOLLOWED BY 0.05% BBN IN DRINKING WATER FOR 6 WK)?
The value was 2/11 (18%), 5/11 (45%), -150%, not significant.

And the “tumour outcome (control, treated, inhibition, significance)” value (Carcinogen: PHENACETIN, 62-44-2, N-BUTYL-N-(4-HYDROXYBUTYL)NITROSAMINE, Carcinogen: PHENACETIN, 62-44-2, N-BUTYL-N-(4-HYDROXYBUTYL)NITROSAMINE, 60 UG IN 0.1 ML SALINE 2/WK FOR 6 WK CONCURRENTLY WITH BBN TREATMENT (STUDY DURATION: 30 WK), Route [Inhibitor]: SUBCUTANEOUS, Species: MOUSE, Strain/Sex: NON/SHI/MALE, Target Tissue: Type of Lesion: URINARY BLADDER: CARCINOMA, Dose [Carcinogen]: 2% PHENACETIN IN DIET FOR 8 WK FOLLOWED BY 0.05% BBN IN DRINKING WATER FOR 6 WK)?
Its value is 2/11 (18%), 2/11 (18%), 0%, not significant.

What about the “tumour outcome (control, treated, inhibition, significance)” value (Carcinogen: PHENACETIN, 62-44-2, N-BUTYL-N-(4-HYDROXYBUTYL)NITROSAMINE, Carcinogen: PHENACETIN, 62-44-2, N-BUTYL-N-(4-HYDROXYBUTYL)NITROSAMINE, 60 UG IN 0.1 ML SALINE 2/WK FOR 6 WK CONCURRENTLY WITH BBN TREATMENT (STUDY DURATION: 34 WK), Route [Inhibitor]: SUBCUTANEOUS, Species: MOUSE, Strain/Sex: NON/SHI/MALE, Target Tissue: Type of Lesion: RENAL PELVIS: CARCINOMA, Dose [Carcinogen]: 2% PHENACETIN IN DIET FOR 12 WK FOLLOWED BY 0.05% BBN IN DRINKING WATER FOR 6 WK) of the same compound?
Its value is 9/20 (45%), 12/19 (63%), -40%, not significant.
